The experiment has as its system A549 cells. Description: cells. To be noted: Homo sapiens, A549, 72 h, read-out: IC50, cytotoxicity for A549.

Experimental findings from paper PMC11278161 (Marine Drugs, 2024) are described below.

Usually IC50 stands for the point on the concentration scale where inhibition reaches its midpoint.

As to `CC[C@@]1(O)C(=O)OCc2c1cc1n(c2=O)Cc2cc3ccccc3nc2-1` [CPT, Camptothecin], the IC50 was 260 nM.
